{"source": "patent US8435929B2", "about": "“1-aminocyclopropane carboxylic acid as a fruit thinner” (Valent BioSciences Corporation, priority 2009, dated 2013)", "key": {"Garnet Beauty peaches": {"test_system": "Garnet Beauty peaches", "assay": "Field thinning study, fruit set of Garnet Beauty peaches", "assay_type": "in vivo, peach", "conditions": "application at petal fall", "method": "A series of field studies on stone fruit thinning were performed over several seasons, on different varieties and in various locations to determine the consistency of the thinning effect of ACC. Even without the application of a chemical thinning agent, crop load (number of fruit remaining divided by the number of flowers or fruit prior to application) was variable. Chemical thinning of stone fruit is variable and dependent on many factors including variety and environment. An acceptable chemical thinning agent is one that gives a substantial and relatively consistent reduction in crop load for a given dose over a wide range of trials.\nFollow up studies confirmed that higher rates (500 or 750 ppm ACC) produced a moderate to heavy crop load on Babygold #5 at two locations (Tables 8 and 9) and Garnet Beauty (Table 10)."}, "Rose Diamond nectarines": {"test_system": "Rose Diamond nectarines", "assay": "Field thinning study, fruit set of Rose Diamond nectarines", "assay_type": "in vivo, nectarine", "conditions": "application at late shuck fall"}, "PF-27 peaches": {"test_system": "PF-27 peaches", "assay": "Field thinning study, ACC and ABA, fruit set of PF-27 peaches", "assay_type": "in vivo, peach", "conditions": "application at shuck split", "excerpt": "Application of ACC alone at shuck split reduced fruit set in a dose dependent manner (Table 10)."}, "Babygold #5 peaches": {"test_system": "Babygold #5 peaches", "assay": "Scaffold gummosis rating of Babygold #5 peaches", "assay_type": "in vivo, peach", "conditions": "in vivo", "excerpt": "Gummosis is a physiological stress response in which sap oozes from fractures in tree bark and often leads to tree decline. Use of 2-chloroethylphosphonic acid as a stone fruit thinning has been limited because it can stimulate severe incidences of gummosis of stone fruit."}, "Fuji apples": {"test_system": "Fuji apples", "assay": "Field thinning study, fruit set and fruit weight of Fuji apples", "assay_type": "in vivo, apple", "excerpt": "ACC was foliar applied at the 10 or 20 mm fruit stage. […] Application of 100 ppm ACC was particularly effective in removing fruit when applied at the 20 mm fruit stage.\nSimilarly, ACC applications at petal fall were not effective for thinning Fuji apples, but later applications (10 and 20 mm) were effective (Table 14)."}, "Pink Lady apples": {"test_system": "Pink Lady apples", "assay": "Field thinning study, fruit set of Pink Lady apples", "assay_type": "in vivo, apple", "conditions": "for Number of fruit per limb / Total number of fruit: 5 days after full bloom"}, "Chardonnay grapes": {"test_system": "Chardonnay grapes", "assay": "Thinning study on Chardonnay grapes (cluster weight, berry weight, berries per rachis, rachis length)", "assay_type": "in vivo, grape", "conditions": "application at bloom", "excerpt": "Application of ACC on grapes during bloom reduced the cluster weight and number of berries/cm rachis (Table 15). However, ACC applications produce the highly undesirable effect of reducing the rachis length and cluster size. Similar results have been seen in trials on other grape varieties in Michigan, California, and Australia."}, "O'Henry peaches": {"test_system": "O'Henry peaches", "assay": "Field thinning study, fruit set, fruit weight and crop safety of O'Henry peaches"}, "[1]": {"conditions": "100 ppm, application timing 10 mm"}, "[2]": {"conditions": "100 ppm, application timing 20 mm"}, "[3]": {"conditions": "300 ppm, application timing 10 mm"}, "[4]": {"conditions": "300 ppm, application timing 20 mm"}, "[5]": {"conditions": "1000 ppm, application timing 10 mm"}, "[6]": {"conditions": "1000 ppm, application timing 20 mm"}}, "data": [{"smiles": "NC1(C(=O)O)CC1", "note": "[ACC, 1-aminocyclopropane carboxylic acid]", "values": [{"measurement": "Crop load (percent) of treated trees compared to the untreated control", "setting": "Garnet Beauty peaches; 500 ppm", "value": 82, "unit": "%"}, {"measurement": "Percent fruit set", "setting": "Garnet Beauty peaches; 500 ppm", "value": 27, "unit": "%"}, {"measurement": "Crop load (percent) of treated trees compared to the untreated control", "setting": "Garnet Beauty peaches; 750 ppm", "value": 58, "unit": "%"}, {"measurement": "Percent fruit set", "setting": "Garnet Beauty peaches; 750 ppm", "value": 19, "unit": "%"}, {"measurement": "Crop load (percent) of treated trees compared to the untreated control", "setting": "Rose Diamond nectarines; 125 ppm", "value": 88, "unit": "%"}, {"measurement": "Percent fruit set", "setting": "Rose Diamond nectarines; 125 ppm", "value": 60, "unit": "%"}, {"measurement": "Crop load (percent) of treated trees compared to the untreated control", "setting": "Rose Diamond nectarines; 250 ppm", "value": 90, "unit": "%"}, {"measurement": "Percent fruit set", "setting": "Rose Diamond nectarines; 250 ppm", "value": 61, "unit": "%"}, {"measurement": "Crop load (percent) of treated trees compared to the untreated control", "setting": "Rose Diamond nectarines; 500 ppm", "value": 65, "unit": "%"}, {"measurement": "Percent fruit set", "setting": "Rose Diamond nectarines; 500 ppm", "value": 44, "unit": "%"}, {"measurement": "Crop load (percent) of treated trees compared to the untreated control", "setting": "Rose Diamond nectarines; 1000 ppm", "value": 24, "unit": "%"}, {"measurement": "Percent fruit set", "setting": "Rose Diamond nectarines; 1000 ppm", "value": 16, "unit": "%"}, {"measurement": "Crop load (percent) of treated trees compared to the untreated control", "setting": "PF-27 peaches; 100 ppm", "value": 81, "unit": "%"}, {"measurement": "Percent fruit set", "setting": "PF-27 peaches; 100 ppm", "value": 70, "unit": "%"}, {"measurement": "Crop load (percent) of treated trees compared to the untreated control", "setting": "PF-27 peaches; 300 ppm", "value": 67, "unit": "%"}, {"measurement": "Percent fruit set", "setting": "PF-27 peaches; 300 ppm", "value": 58, "unit": "%"}, {"measurement": "Crop load (percent) of treated trees compared to the untreated control", "setting": "PF-27 peaches; 1000 ppm", "value": 15, "unit": "%"}, {"measurement": "Percent fruit set", "setting": "PF-27 peaches; 1000 ppm", "value": 13, "unit": "%"}, {"measurement": "Gummosis (in words)", "setting": "Babygold #5 peaches", "value": "little gummosis"}, {"measurement": "Fruit weight", "setting": "Fuji apples; [1]", "value": 95, "unit": "g"}, {"measurement": "Fruit/fruit cluster", "setting": "Fuji apples; [1]", "value": 0.79}, {"measurement": "Fruit weight", "setting": "Fuji apples; [2]", "value": 130, "unit": "g"}, {"measurement": "Fruit/fruit cluster", "setting": "Fuji apples; [2]", "value": 0.54}, {"measurement": "Fruit weight", "setting": "Fuji apples; [3]", "value": 117, "unit": "g"}, {"measurement": "Fruit/fruit cluster", "setting": "Fuji apples; [3]", "value": 0.66}, {"measurement": "Fruit weight", "setting": "Fuji apples; [4]", "value": 132, "unit": "g"}, {"measurement": "Fruit/fruit cluster", "setting": "Fuji apples; [4]", "value": 0.41}, {"measurement": "Fruit per fruit cluster", "setting": "Fuji apples; 500 ppm, timing 10 mm (6-7 mm) (Table 14 trial)", "value": 0.27}, {"measurement": "Fruit per fruit cluster", "setting": "Fuji apples; 500 ppm, timing 20 mm (Table 14 trial)", "value": 0.33}, {"measurement": "Fruit per fruit cluster", "setting": "Fuji apples; 500 ppm, timing petal fall (Table 14 trial)", "value": 0.49}, {"measurement": "Fruit weight", "setting": "Fuji apples; [5]", "value": 157, "unit": "g"}, {"measurement": "Fruit/fruit cluster", "setting": "Fuji apples; [5]", "value": 0.28}, {"measurement": "Fruit weight", "setting": "Fuji apples; [6]", "value": 161, "unit": "g"}, {"measurement": "Fruit/fruit cluster", "setting": "Fuji apples; [6]", "value": 0.03}, {"measurement": "Fruit per fruit cluster", "setting": "Fuji apples; 1000 ppm, timing 10 mm (6-7 mm) (Table 14 trial)", "value": 0.10}, {"measurement": "Fruit per fruit cluster", "setting": "Fuji apples; 1000 ppm, timing petal fall (Table 14 trial)", "value": 0.39}, {"measurement": "Thinning of Fuji apples (in words)", "setting": "Fuji apples; applications at petal fall", "value": "not effective"}, {"measurement": "Number of fruit per limb", "setting": "Pink Lady apples; 100 ppm", "value": 64}, {"measurement": "Total number of fruit", "setting": "Pink Lady apples; 100 ppm", "value": 175}, {"measurement": "Number of fruit per limb", "setting": "Pink Lady apples; 300 ppm", "value": 62}, {"measurement": "Total number of fruit", "setting": "Pink Lady apples; 300 ppm", "value": 165}, {"measurement": "Number of fruit per limb", "setting": "Pink Lady apples; 500 ppm", "value": 61}, {"measurement": "Total number of fruit", "setting": "Pink Lady apples; 500 ppm", "value": 169}, {"measurement": "Number of fruit per limb", "setting": "Pink Lady apples; 1000 ppm", "value": 58}, {"measurement": "Total number of fruit", "setting": "Pink Lady apples; 1000 ppm", "value": 124}, {"measurement": "Crop load (in words)", "setting": "Pink Lady apples; highest rate tested (1000 ppm), early application (full bloom)", "value": "reduced crop load slightly"}, {"measurement": "Berries per cm rachis", "setting": "Chardonnay grapes; 100 ppm", "value": 3.1}, {"measurement": "Berry weight", "setting": "Chardonnay grapes; 100 ppm", "value": 1.2, "unit": "g"}, {"measurement": "Cluster weight", "setting": "Chardonnay grapes; 100 ppm", "value": 128, "unit": "g"}, {"measurement": "Rachis length (cm)", "setting": "Chardonnay grapes; 100 ppm", "value": 34, "unit": "cm"}, {"measurement": "Berries per cm rachis", "setting": "Chardonnay grapes; 300 ppm", "value": 2.9}, {"measurement": "Berry weight", "setting": "Chardonnay grapes; 300 ppm", "value": 1.2, "unit": "g"}, {"measurement": "Cluster weight", "setting": "Chardonnay grapes; 300 ppm", "value": 78, "unit": "g"}, {"measurement": "Rachis length (cm)", "setting": "Chardonnay grapes; 300 ppm", "value": 23, "unit": "cm"}, {"measurement": "Berries per cm rachis", "setting": "Chardonnay grapes; 1000 ppm", "value": 1.6}, {"measurement": "Berry weight", "setting": "Chardonnay grapes; 1000 ppm", "value": 1.1, "unit": "g"}, {"measurement": "Cluster weight", "setting": "Chardonnay grapes; 1000 ppm", "value": 24, "unit": "g"}, {"measurement": "Rachis length (cm)", "setting": "Chardonnay grapes; 1000 ppm", "value": 14, "unit": "cm"}, {"measurement": "Crop load (percent) of treated trees compared to the untreated control", "setting": "O'Henry peaches; 500 ppm at 15 mm fruit stage", "value": 38, "unit": "%"}, {"measurement": "Crop safety on vegetation (0-4 scale)", "setting": "O'Henry peaches; 500 ppm at 15 mm fruit stage", "value": "0.7 0-4 scale"}, {"measurement": "Fruit weight at maturity", "setting": "O'Henry peaches; 500 ppm at 15 mm fruit stage", "value": 185, "unit": "g"}, {"measurement": "Percent fruit set", "setting": "O'Henry peaches; 500 ppm at 15 mm fruit stage", "value": 16, "unit": "%"}, {"measurement": "Crop load (percent) of treated trees compared to the untreated control", "setting": "O'Henry peaches; 500 ppm at petal fall", "value": 79, "unit": "%"}, {"measurement": "Crop safety on vegetation (0-4 scale)", "setting": "O'Henry peaches; 500 ppm at petal fall", "value": "0 0-4 scale"}, {"measurement": "Fruit weight at maturity", "setting": "O'Henry peaches; 500 ppm at petal fall", "value": 200, "unit": "g"}, {"measurement": "Percent fruit set", "setting": "O'Henry peaches; 500 ppm at petal fall", "value": 23, "unit": "%"}, {"measurement": "Crop load (percent) of treated trees compared to the untreated control", "setting": "O'Henry peaches; 750 ppm at 15 mm fruit stage", "value": 21, "unit": "%"}, {"measurement": "Crop safety on vegetation (0-4 scale)", "setting": "O'Henry peaches; 750 ppm at 15 mm fruit stage", "value": "2.1 0-4 scale"}, {"measurement": "Fruit weight at maturity", "setting": "O'Henry peaches; 750 ppm at 15 mm fruit stage", "value": 235, "unit": "g"}, {"measurement": "Percent fruit set", "setting": "O'Henry peaches; 750 ppm at 15 mm fruit stage", "value": 6, "unit": "%"}, {"measurement": "Crop load (percent) of treated trees compared to the untreated control", "setting": "O'Henry peaches; 750 ppm at petal fall", "value": 55, "unit": "%"}, {"measurement": "Crop safety on vegetation (0-4 scale)", "setting": "O'Henry peaches; 750 ppm at petal fall", "value": "0.5 0-4 scale"}, {"measurement": "Fruit weight at maturity", "setting": "O'Henry peaches; 750 ppm at petal fall", "value": 205, "unit": "g"}, {"measurement": "Percent fruit set", "setting": "O'Henry peaches; 750 ppm at petal fall", "value": 11, "unit": "%"}]}]}
